Measurements from US20240101603A1, “ANTIBACTERIAL PEPTIDES AND COMPOUNDS TARGETING TOXIN-ANTITOXIN SYSTEM OF […], AND THEIR USE” (SEOUL NATIONAL UNIVERSITY R&DB FOUNDATION, priority 2021, published 2024).
Entries after “also recorded” stand apart in the source; their conditions may differ. Read-outs that look alike come from different tables or passages of the source.

T1: VapBC complex (Klebsiella pneumoniae subsp. pneumoniae, UniProt A6TG81)
T1 sequence (A6TG81 1-127): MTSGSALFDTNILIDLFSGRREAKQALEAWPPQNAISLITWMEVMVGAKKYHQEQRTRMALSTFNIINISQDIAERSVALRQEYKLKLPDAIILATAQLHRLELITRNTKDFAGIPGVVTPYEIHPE
T1 sequence (A6TG80 1-82 partner): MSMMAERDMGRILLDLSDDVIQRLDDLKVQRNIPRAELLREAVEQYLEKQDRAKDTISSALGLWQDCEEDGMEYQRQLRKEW

T2: VapC (Klebsiella pneumoniae subsp. pneumoniae, UniProt A6TG81)
T2 sequence (A6TG81 1-127): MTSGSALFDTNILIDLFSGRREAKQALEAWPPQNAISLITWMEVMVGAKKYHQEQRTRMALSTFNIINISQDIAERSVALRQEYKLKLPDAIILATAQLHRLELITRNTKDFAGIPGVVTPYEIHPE


Legend:
[1] = biological target: T1, VapBC complex; assay: VapBC complex disruption assay (RNase activity of VapC released from the complex); type: biochemical; details: for VapBC complex disruption efficacy (RNase activity relative to VapC): 100 μM peptide added to 10 μM VapBC complex; for VapBC complex disruption efficacy: 1 μM compound added to 10 μM VapBC complex, compared with peptides at 100 μM; for IC50: inhibition curves, 10 μM VapBC complex
Experimental: (§1) The RNase activity of VapC and VapC mutants was confirmed using an RNase Alert Kit (Integrated DNA Technologies, Inc.). In this analysis, each well contained 50 pm of synthetic RNA with a fluorophore at one end and a quencher group at the other end. The quencher was separated when the prepared RNA was contacted by RNase. Then, fluorescence (RFU) generated during the 1 hour reaction period was detected using a SPECTRAmax GEMINI XS spectrometer (Molecular Devices) at 490 nm (excitation wavelength) and 520 nm (emission wavelength), respectively. For this analysis, the purified VapC and VapC mutants were treated with 10 mM EDTA to remove metal ions and exchanged with a purification buffer containing 10 mM Mg^2+. In each experiment, the concentrations of both VapC and VapC mutants were 10 μM. To prevent contamination, 40 units of RiboLock (Thermoscientific) were added to each well.
In this example, the peptide (100 μM) synthesized in Example 1 was added to the VapBC complex (10 μM) and the RFU of the activated VapC toxin was measured. Other experimental protocols were the same as those for the RNase activity test of VapC and VapC mutants (Experimental Method 5). Upon addition of the peptide of the present invention to the VapBC complex, the inhibitory efficacy of the peptide can be estimated by measuring the RNase activity generated by the free VapC released by the disruption of the VapBC complex.
Using a similar analysis method as in the design of peptides that activate VapC, the inhibitory effect of the compounds was ranked according to the degree of RNase activity by the free VapC released due to the disruption of the VapBC complex. That is, the small molecules were added to the VapBC complex (10 μM) and the efficacy of the small molecules to activate VapC was tested. Other experimental protocols were the same as those described for the peptide-induced complex disruption assay (Examples 2 and 3).

[2] = biological target: T2, VapC; assay: Isothermal titration calorimetry (ITC), binding to VapC
Experimental: ITC was performed using MicroCal200 (GE Healthcare). The concentrations of protein and DNA were determined using NanoDrop (Thermo) at 280 nm and 260 nm, respectively. Stock solutions of peptides and small molecules were prepared at appropriate concentrations. Titration was performed at 25° C. The data were calculated by subtracting the background and fitted to a single-site binding model using the provided source-based software with MicroCal200.

[3] = tested on: free VapC; assay: Effect on RNase activity of free VapC; type: biochemical, Klebsiella pneumoniae; details: substance added to free VapC
Experimental: as §1
However, if the peptide contains the residues that interact with the nucleic acid binding site of VapC, which is the active site of VapC, the destructive ability is suppressed. Accordingly, in this example, the effect of the peptide of the present invention on the activity of free VapC was analyzed.
Through three tests, a total of 400 compounds were narrowed down to 25 according to the inhibitory efficacy ranking. […]

[4] = biological target: Klebsiella pneumoniae VapC toxin (kpn_04186) with N-terminal tag (Klebsiella pneumoniae (MGH78578)); assay: ITC, 25 °C, single-site binding model
[5] = 25° C., single-site binding model
[6] = read-out: Kd (affinity to VapC)
[7] = 25° C., single-site binding model, read-out: Kd

Row | Molecule | VapBC complex disruption efficacy (RNase activity relative to VapC) [1] | TΔS ([2]; 25° C.) | ΔG ([2]; 25° C.) | ΔH ([2]; 25° C.) | n (the binding stoichiometry) [2, 5] | Kd [2, 6] | Kd [4] | TΔS [4] | n (the binding stoichiometry) [4] | ΔH [4] | also measured
1 | GMEAARQL [VapB^71-78, Y74A, Q75A] | lower efficacy than the VapB peptide in which either one was mutated to alanine | – | – | – | – | – | – | – | – | – | –
2 | GMEYARQL [VapB^71-78, Q75A] | higher activity than VapB^71-78 | -1.53 kcal/mol | -12.33 kcal/mol | -10.8 ± 0.02 kcal/mol | 0.99 ± 0.001 | 150 nM | – | – | – | – | –
3 | CCC1Oc2cc(S(=O)(=O)N3CCCC(C(=O)Nc4ccc(F)cc4)C3)c(C)cc2NC1=O (stereo not drawn) [Compound 2, 1-((2-ethyl-6-methyl-3-oxo-3,4-dihydro-2H-benzo[b][1,4]oxazine-7-yl)sulfonyl)-N-(4-fluorophenyl)piperidine-3-carboxamide] | – | 1.39 kcal/mol | -7.71 kcal/mol | -9.1 ± 0.06 kcal/mol | 0.99 ± 0.004 | – | – | – | – | – | Kd [2, 7]: 22 ± 0.2 nM; RNase activity of free VapC after treatment [3]: did not affect the RNase activity of VapC; VapBC complex disruption efficacy [1]: higher efficacy at 1 μM; IC50 [1]: 400 nM
4 | Klebsiella pneumoniae VapB antitoxin (kpn_04185) | – | – | – | – | – | – | 3 nM | -16.4 kcal/mol | 0.97 | -28.1 kcal/mol | –
5 | GMEAQRQL [VapB^71-78, Y74A] | highest efficacy among all the designed peptides; also recorded: higher activity than VapB^71-78 | -4.17 kcal/mol | -17.57 kcal/mol | -13.4 ± 0.02 kcal/mol | 0.99 ± 0.001 | 170 nM | – | – | – | – | –
6 | NC(=O)NC(=O)CCN1CCC(C(=O)c2ccc(O)cc2)CC1 [Compound 1, N-carbamoyl-3-(4-(4-hydroxybenzoyl)piperidine-1-yl)propanamide] | – | 1.93 kcal/mol | -6.37 kcal/mol | -8.3 ± 0.03 kcal/mol | 0.98 ± 0.002 | – | – | – | – | – | Kd [2, 7]: 35 ± 0.4 nM; RNase activity of free VapC after treatment [3]: did not affect the RNase activity of VapC; VapBC complex disruption efficacy [1]: higher efficacy at 1 μM; IC50 [1]: 420 nM
7 | GMEYQRQL [VapB^71-78] | – | -8.4 kcal/mol | -26.3 kcal/mol | -17.9 ± 0.07 kcal/mol | 1.02 ± 0.002 | 110 nM | – | – | – | – | –
8 | GMEYQRQL [Peptide VapB^71-78] | – | – | – | – | – | – | 110 nM | -8.4 kcal/mol | 1.02 | -17.9 kcal/mol | –
9 | GMEAQRQL [Peptide VapB^71-78, Y74A] | – | – | – | – | – | – | 170 nM | -4.17 kcal/mol | 0.99 | -13.4 kcal/mol | –
10 | GMEYARQL [Peptide VapB^71-78, Q75A] | – | – | – | – | – | – | 150 nM | -1.53 kcal/mol | 0.99 | -10.8 kcal/mol | ΔG [4]: -12.3 kcal/mol
